{"source": "patent US10571469B2", "about": "“Kit for labelling bacteria” (Centre National de la Recherche Scientifique (CNRS), priority 2012, dated 2020)", "key": {"S. typhimurium 12023": {"system": "S. typhimurium 12023", "assay": "Metabolic labelling with KDO-N3, click chemistry, fluorescence microscopy", "type": "cell-based, Salmonella typhimurium", "settings": "KDO-N3 4 mM, 12 hours; A488-yne-Cu(I) click 60 min"}, "Staphylococcus aureus": {"system": "Staphylococcus aureus", "assay": "Metabolic labelling with KDO-N3, click chemistry, fluorescence microscopy (negative control strain)", "type": "cell-based", "settings": "Gram positive; KDO-N3 4 mM, 12 hours; A488-yne-Cu(I) click 60 min"}, "Shewanella oneidensis": {"system": "Shewanella oneidensis", "assay": "Metabolic labelling with KDO-N3, click chemistry, fluorescence microscopy (negative control strain)", "type": "cell-based", "settings": "KDO-N3 4 mM, 12 hours, 28° C.; A488-yne-Cu(I) click 60 min"}, "Bacillus subtilis": {"system": "Bacillus subtilis", "assay": "Metabolic labelling with KDO-N3, click chemistry, fluorescence microscopy (negative control strain)", "type": "cell-based", "settings": "Gram positive; KDO-N3 4 mM, 12 hours; A488-yne-Cu(I) click 60 min"}, "E. coli 086": {"system": "E. coli 086", "assay": "Metabolic labelling with KDO-N3, click chemistry, fluorescence microscopy", "type": "cell-based, Escherichia coli", "settings": "KDO-N3 4 mM, 12 hours; A488-yne-Cu(I) click 60 min"}, "E. coli K12": {"system": "E. coli K12", "assay": "Metabolic LPS labelling with KDO-N3, Cu(I) click with A488-yne, fluorescence microscopy", "type": "cell-based, Escherichia coli"}, "[1]": {"system": "Legionella pneumophila strain Paris", "type": "cell-based", "settings": "KDO-N3 4 mM, 12 hours; A488-yne-Cu(I) click 60 min"}, "[2]": {"settings": "mixture with B. subtilis, LB, 12 hours, 696 analyzed cells"}, "[3]": {"settings": "mixture with E. coli, LB, 12 hours, 696 analyzed cells"}}, "data": [{"smiles": "[N-]=[N+]=NC[C@@H](O)[C@@H](O)[C@H](O)[C@H](O)CC(=O)C(=O)O", "note": "[KDO-N3, 8-azido-3,8-dideoxy-D-manno-octulosonic acid]", "values": [{"measurement": "cell-surface labeling", "setting": "S. typhimurium 12023", "value": "efficient and well defined cell-surface labeling"}, {"measurement": "E. coli KDO negative", "setting": "E. coli K12 sodA-mCherry; 9 cells, standard method error range about 10%", "value": "about 2%"}, {"measurement": "assimilation in E. coli cells of the mixture", "setting": "E. coli K12 sodA-mCherry; mixture with B. subtilis", "value": "assimilated in substantially only cultivable E. coli cells"}, {"measurement": "KDO-N3+ cells, mCherry + (E. coli)", "setting": "E. coli K12 sodA-mCherry; [2]", "value": 517}, {"measurement": "KDO-N3− cells, mCherry + (E. coli)", "setting": "E. coli K12 sodA-mCherry; [2]", "value": 9}, {"measurement": "cell-surface labeling", "setting": "Staphylococcus aureus", "value": "no labeling"}, {"measurement": "cell-surface labeling", "setting": "Shewanella oneidensis", "value": "no labeling"}, {"measurement": "cell-surface labeling", "setting": "Bacillus subtilis", "value": "no labeling"}, {"measurement": "B. subtilis false positive", "setting": "B. subtilis; 4 KDO-N3+ B. subtilis cells", "value": "about 2%"}, {"measurement": "assimilation in B. subtilis cells of the mixture", "setting": "B. subtilis; mixture with E. coli", "value": "not in cultivable B. subtilis cells"}, {"measurement": "KDO-N3+ cells, mCherry − (B. subtilis)", "setting": "B. subtilis; [3]", "value": 4}, {"measurement": "KDO-N3− cells, mCherry − (B. subtilis)", "setting": "B. subtilis; [3]", "value": 166}, {"measurement": "cell-surface labeling", "setting": "E. coli 086", "value": "efficient and well defined cell-surface labeling"}, {"measurement": "cell-surface labeling", "setting": "E. coli K12; KDO-N3 4 mM, 12 hours, A488-yne-Cu(I) click 60 min", "value": "efficient and well defined cell-surface labeling"}, {"measurement": "labeling of bacteria (fluorescence)", "setting": "E. coli K12; […], click with TGTA and A488-yne, after 5 min, control without KDO-N3 no signal", "value": "very bright labeling"}, {"measurement": "location of fluorescence", "setting": "E. coli K12; after click labelling with A488-yne, 5 min", "value": "mostly evident around the cell periphery"}, {"measurement": "cell-surface labeling", "setting": "[1]", "value": "efficient and well defined cell-surface labeling"}]}]}
